Patent US20050090651A1, “Polymeric compounds” (AdProTech Limited Cesterford Research Park, Little …, priority 2001, published 2005)
Where a SMILES comes first, the peptide text is derived from it. The star is where a group is joined. Myristoyl = CCCCCCCCCCCCCC(=O)*

Test: Solubility of the lyophilised peptide
Type: physicochemical
Experimental: The crude peptide was desalted via gel filtration (Sephadex G10, 0.1% TFA in water) before purification by preparative C18 Vydac) high performance liquid chromatography (HPLC) using 0.1% trifluoroacetic acid and 0.1% trifluoroacetic acid/90% acetonitrile as gradient components. After lyophilisation, the peptide was a white amorphous powder, soluble to at least 10 mg/mL in both dimethylsulfoxide and water. Fast atom bombardment spectrometry gave a main peak at 2101 amu corresponding to the molecular ion of the peptide.

- solubility (in dimethylsulfoxide): ≥ 10000 µg/mL
- solubility (in water): ≥ 10000 µg/mL
SMILES: CCCCCCCCCCCCCC(=O)NCC(=O)N[C@@H](CO)C(=O)N[C@@H](CO)C(=O)N[C@@H](CCCCN)C(=O)N[C@@H](CO)C(=O)N1CCC[C@H]1C(=O)N[C@@H](CO)C(=O)N[C@@H](CCCCN)C(=O)N[C@@H](CCCCN)C(=O)N[C@@H](CC(=O)O)C(=O)N[C@@H](CC(=O)O)C(=O)N[C@@H](CCCCN)C(=O)N[C@@H](CCCCN)C(=O)N1CCC[C@H]1C(=O)NCC(=O)N[C@@H](CC(=O)O)C(=O)N[C@@H](CCCCNC(=O)[C@@H](N)CS)C(N)=O [MSWP2278, Myristoyl-Gly-Ser-Ser-Lys-Ser-Pro-Ser-Lys-Lys-Asp-Asp-Lys-Lys-Pro-Gly-Asp-(ε-amino-cysteinyl carboxamide)-Lys-NH2] (Myristoyl-GSSKSPSKKDDKKPGDK(Cys)-NH2)
